In ChEMBL document CHEMBL4184180, “Antitussive and expectorant activities of licorice and its major compounds” (2018):
The source made the active and inactive calls. No cut-off for these calls is given here.

Legend:
Mus musculus [1] = assay: Antitussive activity in ammonia liquor-induced cough ICR mouse model assessed as reduction in cough frequency at 50 mg/kg, po treated with ammonia 1 hr before and 1 hr after test compound dosing measured for 3 mins relative to control; type: functional
Mus musculus [2] = assay: Antitussive activity in ammonia liquor-induced cough ICR mouse model assessed as reduction in cough frequency at 50 mg/kg, po treated with ammonia 1 hr before and 2.5 hrs after test compound dosing measured for 3 mins relative to control; type: functional
Mus musculus [3] = assay: Antitussive activity in ammonia liquor-induced cough ICR mouse model assessed as reduction in cough frequency at 50 mg/kg, po treated with ammonia 1 hr before and 5 hrs after test compound dosing measured for 3 mins relative to control; type: functional
Mus musculus [4] = assay: Antitussive activity in ammonia liquor-induced cough ICR mouse model assessed as reduction in cough frequency at 20 mg/kg, po treated with ammonia 1 hr before and 1 hr after test compound dosing measured for 3 mins; type: functional, organism-based
Mus musculus [5] = assay: Antitussive activity in ammonia liquor-induced cough ICR mouse model assessed as reduction in cough frequency at 20 mg/kg, po treated with ammonia 1 hr before and 2.5 hrs after test compound dosing measured for 3 mins; type: functional, organism-based
Mus musculus [6] = assay: Antitussive activity in ammonia liquor-induced cough ICR mouse model assessed as reduction in cough frequency at 20 mg/kg, po treated with ammonia 1 hr before and 5 hrs after test compound dosing measured for 3 mins; type: functional, organism-based
Mus musculus [7] = assay: Expectorant activity in ICR mouse assessed as increase in phenol red secretion in trachea at 50 mg/kg, po for 3 days followed by phenol red treatment at 30 mins post last dose measured after 30 mins by UV-Vis spectrophotometric assay relative to control; type: functional
Mus musculus [8] = assay: Expectorant activity in ICR mouse assessed as phenol red secretion in trachea at 20 to 50 mg/kg, po for 3 days followed by phenol red treatment at 30 mins post last dose measured after 30 mins by UV-Vis spectrophotometric assay relative to control; type: functional
Mus musculus [9] = assay: Antitussive activity in ammonia liquor-induced cough ICR mouse model assessed as reduction in cough frequency at 50 mg/kg, po treated with ammonia 1 hr before and 1 to 5 hrs after test compound dosing measured for 3 mins relative to control; type: functional; design: scale not given: the % may be the effect or the level left
Mus musculus [10] = assay: Antitussive activity in ammonia liquor-induced cough ICR mouse model assessed as increase in latent period at 50 mg/kg, po treated with ammonia 1 hr before and 1 to 5 hrs after test compound dosing measured for 3 mins relative to control; type: functional
Mus musculus [11] = assay: Antitussive activity in ammonia liquor-induced cough ICR mouse model assessed as reduction in cough frequency at 20 mg/kg, po treated with ammonia 1 hr before and 1 to 5 hrs after test compound dosing measured for 3 mins relative to control; type: functional, organism-based
Mus musculus [12] = assay: Antitussive activity in ammonia liquor-induced cough ICR mouse model assessed as increase in latent period at 20 mg/kg, po treated with ammonia 1 hr before and 1 to 5 hrs after test compound dosing measured at 1 hr post dose; type: functional, organism-based
Mus musculus [13] = assay: Antitussive activity in ammonia liquor-induced cough ICR mouse model assessed as reduction in cough frequency at 50 mg/kg, po treated with ammonia 1 hr before and 1 hr after test compound dosing measured for 3 mins in presence of 5-HT receptor antagonist methysergide relative to control; type: functional; design: scale not given: the % may be the effect or the level left
Mus musculus [14] = assay: Antitussive activity in ammonia liquor-induced cough ICR mouse model assessed as reduction in cough frequency at 50 mg/kg, po treated with ammonia 1 hr before and 1 hr after test compound dosing measured for 3 mins in presence of ATP-sensitive K+ channel blocker glibenclamide relative to control; type: functional; design: scale not given: the % may be the effect or the level left
Mus musculus [15] = assay: Antitussive activity in ammonia liquor-induced cough ICR mouse model assessed as reduction in cough frequency at 50 mg/kg, po treated with ammonia 1 hr before and 1 to 5 hrs after test compound dosing measured for 3 mins in presence of opioid receptor antagonist naloxone relative to control; type: functional, organism-based
Mus musculus [16] = assay: Antitussive activity in ammonia liquor-induced cough ICR mouse model assessed as increase in latent period at 50 mg/kg, po treated with ammonia 1 hr before and 1 hr after test compound dosing measured at 1 hr post dose; type: functional, organism-based

## COc1cc(O)ccc1/C=C/C(=O)c1ccc(O)cc1
Mus musculus [1]
  Activity: inactive
Mus musculus [2]
  Activity: inactive
Mus musculus [3]
  Activity: inactive
Mus musculus [4]
  Activity: inactive
Mus musculus [5]
  Activity: inactive
Mus musculus [6]
  Activity: inactive

## COc1ccccc1OCC(O)CO (stereo not given) [GUAIFENESIN]
Mus musculus [7]
  fold change (FC): 3
Mus musculus [8]
  Activity: 299.5%

## O=C1C[C@@H](c2ccc(O[C@@H]3O[C@H](CO)[C@@H](O)[C@H](O)[C@H]3O[C@@H]3OC[C@](O)(CO)[C@H]3O)cc2)Oc2cc(O)ccc21
Mus musculus [1]
  Activity: 79.1%
Mus musculus [9]
  Activity: 30 - 78%
Mus musculus [10]
  fold change (FC): 1.3 - 1.9
Mus musculus [11]
  Activity: Active
Mus musculus [12]
  Activity: inactive
Mus musculus [13]
  Activity: 30%
Mus musculus [14]
  Activity: 28.2%
Mus musculus [15]
  Activity: Active
Mus musculus [7]
  fold change (FC): 1.97
Mus musculus [8]
  Activity: 196.6%

## O=C(/C=C/c1ccc(O[C@@H]2O[C@H](CO)[C@@H](O)[C@H](O)[C@H]2O)cc1)c1ccc(O)cc1O
Mus musculus [1]
  Activity: inactive
Mus musculus [2]
  Activity: inactive
Mus musculus [3]
  Activity: inactive
Mus musculus [4]
  Activity: inactive
Mus musculus [5]
  Activity: inactive
Mus musculus [6]
  Activity: inactive

## O=C1C[C@@H](c2ccc(O)cc2)Oc2cc(O)ccc21 [LIQUIRTIGENIN]
Mus musculus [3]
  Activity: Active
Mus musculus [9]
  Activity: 30 - 78%
Mus musculus [13]
  Activity: inactive
Mus musculus [14]
  Activity: inactive
Mus musculus [15]
  Activity: Active
Mus musculus [7]
  fold change (FC): 1.57
Mus musculus [8]
  Activity: 156.7%

## COc1c(CC=C(C)C)c(O)cc2oc(=O)c(-c3ccc(O)cc3O)cc12
Mus musculus [1]
  Activity: inactive
Mus musculus [2]
  Activity: inactive
Mus musculus [3]
  Activity: inactive
Mus musculus [4]
  Activity: inactive
Mus musculus [5]
  Activity: inactive
Mus musculus [6]
  Activity: inactive

## CCN(CC)CCOCCOC(=O)C1(c2ccccc2)CCCC1.O=C(O)CC(O)(CC(=O)O)C(=O)O [CARBETAPENTANE CITRATE]
Mus musculus [1]
  Activity: 58%
Mus musculus [2]
  Activity: 53%
Mus musculus [3]
  Activity: 50%
Mus musculus [16]
  Activity: Active

## CC1(C)[C@@H](O[C@H]2O[C@H](C(=O)O)[C@@H](O)[C@H](O)[C@H]2O[C@@H]2O[C@H](C(=O)O)[C@@H](O)[C@H](O)[C@H]2O)CC[C@]2(C)[C@H]3C(=O)C=C4[C@@H]5C[C@@](C)(C(=O)O)CC[C@]5(C)CC[C@@]4(C)[C@]3(C)CC[C@@H]12
Mus musculus [1]
  Activity: inactive
Mus musculus [2]
  Activity: inactive
Mus musculus [3]
  Activity: inactive
Mus musculus [4]
  Activity: inactive
Mus musculus [5]
  Activity: inactive
Mus musculus [6]
  Activity: inactive
Mus musculus [7]
  Activity: inactive

## CC1(C)[C@@H](O)CC[C@]2(C)[C@H]3C(=O)C=C4[C@@H]5C[C@@](C)(C(=O)O)CC[C@]5(C)CC[C@@]4(C)[C@]3(C)CC[C@@H]12 [ENOXOLONE]
Mus musculus [9]
  Activity: 27 - 40%
Mus musculus [7]
  Activity: inactive

## CC1(C)C=Cc2c(ccc3c2OC[C@@H](c2ccc(O)cc2O)C3)O1
Mus musculus [2]
  Activity: Active

## CC(C)=CCc1cc2c(=O)cc(-c3ccc(O)cc3)oc2cc1O
Mus musculus [1]
  Activity: inactive
Mus musculus [2]
  Activity: inactive
Mus musculus [3]
  Activity: inactive
Mus musculus [4]
  Activity: inactive
Mus musculus [5]
  Activity: inactive
Mus musculus [6]
  Activity: inactive

## C=CC(C)(C)c1cc(/C=C/C(=O)c2ccc(O)cc2)c(OC)cc1O
Mus musculus [1]
  Activity: inactive
Mus musculus [2]
  Activity: inactive
Mus musculus [3]
  Activity: inactive
Mus musculus [4]
  Activity: inactive
Mus musculus [5]
  Activity: inactive
Mus musculus [6]
  Activity: inactive

## CC(C)=CCc1cc(-c2coc3cc(O)c(CC=C(C)C)c(O)c3c2=O)cc(O)c1O
Mus musculus [1]
  Activity: inactive
Mus musculus [2]
  Activity: inactive
Mus musculus [3]
  Activity: inactive
Mus musculus [4]
  Activity: inactive
Mus musculus [5]
  Activity: inactive
Mus musculus [6]
  Activity: inactive

## O=C(/C=C/c1ccc(O[C@H]2O[C@@H](CO)[C@H](O)[C@@H](O)[C@@H]2O[C@@H]2OC[C@](O)(CO)[C@H]2O)cc1)c1ccc(O)cc1O
Mus musculus [1]
  Activity: Active
Mus musculus [2]
  Activity: inactive
Mus musculus [3]
  Activity: inactive
Mus musculus [4]
  Activity: Active
Mus musculus [5]
  Activity: inactive
Mus musculus [6]
  Activity: inactive

## O=C(/C=C/c1ccc(O)cc1)c1ccc(O)cc1O
Mus musculus [1]
  Activity: inactive
Mus musculus [2]
  Activity: Active
Mus musculus [3]
  Activity: Active
Mus musculus [4]
  Activity: inactive
Mus musculus [5]
  Activity: Active
Mus musculus [6]
  Activity: Active
Mus musculus [7]
  Activity: inactive

## O=C1C[C@@H](c2ccc(O[C@@H]3O[C@H](CO)[C@@H](O)[C@H](O)[C@H]3O)cc2)Oc2cc(O)ccc21 [LIQUIRITIN]
Mus musculus [2]
  Activity: Active
Mus musculus [3]
  Activity: Active
Mus musculus [9]
  Activity: 30 - 78%
Mus musculus [13]
  Activity: inactive
Mus musculus [14]
  Activity: inactive
Mus musculus [15]
  Activity: Active
Mus musculus [7]
  fold change (FC): 2.5
Mus musculus [8]
  Activity: 249.8%
